Experimental data from the supplement of paper PMC10307832.

Assays:
Test in all cases: relative viability (nuclei count vs DMSO), 5 days (fraction); higher = more cells survive
CAP-232 = compound: C[C@H]([C@@H](C(=O)N)NC(=O)[C@@H]1CSSC[C@@H](C(=O)N[C@H](C(=O)N[C@@H](C(=O)N[C@H](C(=O)N1)CCCCN)CC2=CNC3=CC=CC=C32)CC4=CC=C(C=C4)O)NC(=O)[C@@H](CC5=CC=CC=C5)N)O [CAP-232]
How it was run: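 Viability is treated-well nuclei as a fraction of vehicle-well nuclei, reported as the median across plates. Before counting, lung cancer cell lines were kept overnight at 37 °C in 1536-well plates, pinned with five √10-spaced library-drug doses on vehicle-anchored plates, and left 5 days without medium change, then fixed, permeabilised and Hoechst-stained in one step, imaged at 4× and counted by MetaXpress. A plate passed only if control CV was below 25% and at least one doubling occurred.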

CAP-232 + Linsitinib = compound: C[C@H]([C@@H](C(=O)N)NC(=O)[C@@H]1CSSC[C@@H](C(=O)N[C@H](C(=O)N[C@@H](C(=O)N[C@H](C(=O)N1)CCCCN)CC2=CNC3=CC=CC=C32)CC4=CC=C(C=C4)O)NC(=O)[C@@H](CC5=CC=CC=C5)N)O [CAP-232] + C[C@]1(O)C[C@@H](c2nc(-c3ccc4ccc(-c5ccccc5)nc4c3)c3c(N)nccn32)C1 [Linsitinib] (partner 1 µM)
How it was run: (§1)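 For relative viability, nuclei counts in treated wells were divided by those in vehicle wells. Lung cancer cell lines had been pin-tool dosed in 1536-well plates the day after seeding and cultured for 5 days, then fixed and stained in one step (final 0.05% Triton X-100, 1% formaldehyde, 1 ug/ml Hoechst) and imaged at 4×. Doses were one drug alone or a fixed anchor-drug dose plus five library-drug doses (not always all listed) in √10 steps, and values are duplicate-plate medians.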

CAP-232 + Crizotinib = compound: C[C@H]([C@@H](C(=O)N)NC(=O)[C@@H]1CSSC[C@@H](C(=O)N[C@H](C(=O)N[C@@H](C(=O)N[C@H](C(=O)N1)CCCCN)CC2=CNC3=CC=CC=C32)CC4=CC=C(C=C4)O)NC(=O)[C@@H](CC5=CC=CC=C5)N)O [CAP-232] + C[C@@H](Oc1cc(-c2cnn(C3CCNCC3)c2)cnc1N)c1c(Cl)ccc(F)c1Cl [Crizotinib] (partner 1 µM)
How it was run: as §1

CAP-232 + Foretinib = compound: C[C@H]([C@@H](C(=O)N)NC(=O)[C@@H]1CSSC[C@@H](C(=O)N[C@H](C(=O)N[C@@H](C(=O)N[C@H](C(=O)N1)CCCCN)CC2=CNC3=CC=CC=C32)CC4=CC=C(C=C4)O)NC(=O)[C@@H](CC5=CC=CC=C5)N)O [CAP-232] + COc1cc2c(Oc3ccc(NC(=O)C4(C(=O)Nc5ccc(F)cc5)CC4)cc3F)ccnc2cc1OCCCN1CCOCC1 [Foretinib] (partner 0.25 µM)
How it was run: as §1

CAP-232 + Phenformin = compound: C[C@H]([C@@H](C(=O)N)NC(=O)[C@@H]1CSSC[C@@H](C(=O)N[C@H](C(=O)N[C@@H](C(=O)N[C@H](C(=O)N1)CCCCN)CC2=CNC3=CC=CC=C32)CC4=CC=C(C=C4)O)NC(=O)[C@@H](CC5=CC=CC=C5)N)O [CAP-232] + N=C(N)NC(=N)NCCc1ccccc1 [Phenformin] (partner 250 µM)
How it was run: as §1

Row | Cell Line | relative viability (CAP-232; 0.4 µM) | relative viability (CAP-232; 1.265 µM) | relative viability (CAP-232; 4 µM) | relative viability (CAP-232; 12.65 µM) | relative viability (CAP-232 + Linsitinib; first compound 0.4 µM) | relative viability (CAP-232 + Linsitinib; first compound 1.265 µM) | relative viability (CAP-232 + Linsitinib; first compound 4 µM) | relative viability (CAP-232 + Linsitinib; first compound 12.65 µM) | relative viability (CAP-232 + Crizotinib; first compound 0.4 µM) | relative viability (CAP-232 + Crizotinib; first compound 1.265 µM) | relative viability (CAP-232 + Crizotinib; first compound 4 µM) | relative viability (CAP-232 + Crizotinib; first compound 12.65 µM) | relative viability (CAP-232 + Foretinib; first compound 0.4 µM) | relative viability (CAP-232 + Foretinib; first compound 1.265 µM) | relative viability (CAP-232 + Foretinib; first compound 4 µM) | relative viability (CAP-232 + Foretinib; first compound 12.65 µM) | relative viability (CAP-232 + Phenformin; first compound 0.4 µM) | relative viability (CAP-232 + Phenformin; first compound 1.265 µM) | relative viability (CAP-232 + Phenformin; first compound 4 µM) | relative viability (CAP-232 + Phenformin; first compound 12.65 µM)
1 | NCI-H441 | 1.07 | 0.969 | 1.07 | 0.921 | 0.439 | 0.64 | 0.699 | 0.5 | 0.711 | 0.636 | 0.639 | 0.734 | 0.895 | 1.03 | 0.7 | 1.07 | 0.82 | 0.897 | 0.982 | 0.864
2 | HOP-62 | 0.998 | 0.957 | 1.1 | 0.992 | 0.776 | – | 0.954 | 0.946 | 1 | – | 1.05 | 0.729 | 1.04 | 1.07 | 1.01 | 1.03 | 0.71 | 0.675 | 0.72 | 0.55
3 | SK-LU-1 | 1.09 | 1.07 | 1.12 | 0.9 | 1.06 | 1.2 | 1.15 | 1.06 | 0.689 | 0.988 | 0.781 | 0.912 | 0.759 | 0.937 | 0.913 | 0.652 | 0.503 | 0.553 | 0.67 | 0.482
4 | LCLC-103H | 1.13 | 0.984 | 1.08 | 0.967 | 1.13 | 1.08 | 1.13 | 0.946 | 1.1 | 0.984 | 0.98 | 1.06 | 0.838 | 0.735 | 0.802 | 0.827 | 0.368 | 0.342 | 0.315 | 0.325
5 | NCI-H1915 | 1.09 | 0.948 | 1.08 | 1.07 | 1.08 | 1.1 | 1.08 | 0.986 | 1.04 | 0.915 | 1.04 | 0.961 | 1.11 | 1.11 | 1.11 | 1.09 | 0.419 | 0.356 | 0.407 | 0.397
6 | PC-3 [JPC-3] | 1.09 | 1.05 | 1.07 | 0.955 | 1.05 | 1 | 0.902 | 0.972 | 1.01 | 1.02 | 0.966 | 0.985 | 1.1 | 1.02 | 1.05 | 0.98 | 0.494 | 0.461 | 0.459 | 0.453
7 | SW 1573 | 0.909 | 0.928 | 1.06 | 0.495 | 0.751 | 0.781 | 0.731 | 0.683 | 0.785 | 0.803 | 0.642 | 0.81 | 0.873 | 0.836 | 0.903 | 1.03 | 0.337 | 0.413 | 0.421 | 0.163
